Values joined by “and” are separate entries in the source; they are usually repeats but may differ in a detail not shown here. Equal values may be shown once.
Experiments:
DC-cells = test: Cell penetration assay: staining for biotinylated peptides, dendritic cells gated as CD11c+; type: cell-based, human; details: low concentration of peptides (208 uM)
In short: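 Human PBMCs from one donor incubated 2 h at 37 °C with N- or C-terminally biotinylated peptides (5, 2.5, 1.25 mM; concentrations as added), then trypsinized, fixed/permeabilized and stained with streptavidin-APC and anti-CD11c. Flow cytometry GeoMean of peptide fluorescence in total cells and CD11c+ dendritic cells.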

[1] = tested on: PBMC samples from HCV patients; test: Human IFN-gamma cytotoxic T-cell (CTL) response by ELISPOT assay; type: cell-based
Procedure: Human IFN-Gamma Cytotoxic T-Cell (CTL) Response by ELISPOT Assay
Briefly, at day 1, PBMC samples from HCV patients were incubated in flasks (430 000 PBMCs/cm2) for 2 h at 37° C., 5% CO2 in covering amount of culture media (RPMI 1640 Fisher Scientific; Cat No. PAAE15-039 supplemented with L-Glutamine, (MedProbe Cat. No. 13E17-605E, 10% Foetal Bovine serum (FBS), Fisher Scientific Cat. No. A15-101) and Penicillin/Streptomycin, (Fisher Acientific Cat. No. P11-010) in order to allow adherence of monocytes. Non-adherent cells were isolated, washed, and frozen in 10% V/V DMSO in FBS until further usage. Adherent cells were carefully washed with culture media, followed by incubation at 37° C. until day 3 in culture media containing 2 μg/ml final concentration of hrGM-CSF (Xiamen amoytop biotech co, cat no: 3004.9090.90) & 1 μg/ml hrIL-4 (Invitrogen, Cat no: PHC0043), and this procedure was then repeated at day 6. At day 7, cultured dendritic cells (5 000-10 000 per well) were added to ELISPOT (Millipore multiscreen HTS) plates coated with 0.5 μg/well anti-human γ Interferon together with thawed autologous non-adherent cells (200 000 per well), antigen samples (1-8 ug/ml final concentration for peptide antigens; 5 ug/ml final concentration for Concanavalin A (Sigma, Cat no: C7275) or PHA (Sigma, Cat no: L2769)) & anti-Anergy antibodies (0.03-0.05 ug/ml final concentration for both anti-PD-1 (eBioscience, cat no: 16-9989-82) & anti-PD-L1 (eBioscience, cat no: 16-5983-82)). Plates were incubated overnight and spots were developed according to manufacturer. Spots were read on ELISPOT reader (CTL-ImmunoSpot® S5 UV Analyzer).

Row | Sequence | Results on DC-cells (geomean peptide-fluorescence) (DC-cells; BC 16) | Results on DC-cells (geomean peptide-fluorescence) (DC-cells; BC43) | IFN-g ELISPOT (T-cell spots) ([1]; Patient A (HCV patient), listed as 310-51b) | IFN-g ELISPOT (T-cell spots) ([1]; Patient B (HCV patient), listed as 310-51b) | IFN-g ELISPOT (T-cell spots) ([1]; Patient C (HCV patient), listed as 310-51b) | IFN-g ELISPOT (T-cell spots) ([1]; Patient D (HCV patient), listed as 310-51b) | IFN-g ELISPOT (T-cell spots) ([1]; Patient A (HCV patient), listed as 310-42) | IFN-g ELISPOT (T-cell spots) ([1]; Patient D (HCV patient), listed as 310-42) | IFN-g ELISPOT (T-cell spots) ([1]; Patient A (HCV patient), listed as 310-42b) | IFN-g ELISPOT (T-cell spots) ([1]; Patient B (HCV patient), listed as 310-42b) | IFN-g ELISPOT (T-cell spots) ([1]; Patient D (HCV patient), listed as 310-42b)
1 | RRGYIPLVGAPLGBRVARALAHGVRV [51b] | 7000 | 6082 | 45 and 40 | 50 and 85 | 45 and 75 | 9 and 13 |  |  |  |  | 
2 | RRIRNLGRVIETLTGBRLZGYIPLIGA [compound 42] | 74920 | 65811 |  |  |  |  | 75 and 80 | 13 and 11 |  |  | 
3 | RRSRNLGKVIDTLTCBRLMGYIPLVGA [42b] | 61968 | 19181 |  |  |  |  |  |  | 90 and 115 | 60 and 80 | 13 and 11
